Consider 16 molecules from US20240391936A1, “TETRAHYDROTHIENO PYRIDINE DERIVATIVES AS DDRS INHIBITORS” (CHIESI FARMACEUTICI S.P.A., priority 2021, published 2024).

For assay [1], the target named is T1, DDR1 (Homo sapiens, UniProt Q08345). The experiment in a line: DDR1 binding assay (LanthaScreen Europium Kinase Binding assay). Set-up: purchased Carna Biosciences. Conditions: binding assay, 5 nM DDR1, 20 nM Kinase Tracer 178; Ki from IC50 by Cheng-Prusoff; read-out: Ki DDR1. As for the experimental part: (§1) DDR1 and DDR2 binding assays were performed using Life Technologies LanthaScreen™ Europium Kinase Binding assay. The compounds were incubated with 5 nM DDR1 (Carna Biosciences) or 5 nM DDR2 (Life Technologies) for 1 hour at room temperature in white 384-well OptiPlate (PerkinElmer), containing 20 nM or 10 nM Kinase Tracer 178 respectively and 2 nM Europium labelled anti-GST antibody (Life Technologies) in assay buffer (50 mM HEPES pH 7.5, 10 mM MgCl2, 1 mM EGTA and 0.01% BRIJ35).
(§2) The ratio of fluorescence emission 665 nm/615 nm after excitation at 340 nm was obtained using the Tecan Spark 20M plate reader. IC50 values were determined in GraphPad Prism 7.0 software, using 4 parameter model: log(inhibitor) vs. response. IC50 values were converted in Ki using the Cheng-Prusoff equation
In general terms: In TR-FRET formats the signal depends on donor and acceptor labels being close together.

The target in another assay is T2, DDR2 (Homo sapiens, UniProt Q16832).
T2 sequence (Q16832 22-855): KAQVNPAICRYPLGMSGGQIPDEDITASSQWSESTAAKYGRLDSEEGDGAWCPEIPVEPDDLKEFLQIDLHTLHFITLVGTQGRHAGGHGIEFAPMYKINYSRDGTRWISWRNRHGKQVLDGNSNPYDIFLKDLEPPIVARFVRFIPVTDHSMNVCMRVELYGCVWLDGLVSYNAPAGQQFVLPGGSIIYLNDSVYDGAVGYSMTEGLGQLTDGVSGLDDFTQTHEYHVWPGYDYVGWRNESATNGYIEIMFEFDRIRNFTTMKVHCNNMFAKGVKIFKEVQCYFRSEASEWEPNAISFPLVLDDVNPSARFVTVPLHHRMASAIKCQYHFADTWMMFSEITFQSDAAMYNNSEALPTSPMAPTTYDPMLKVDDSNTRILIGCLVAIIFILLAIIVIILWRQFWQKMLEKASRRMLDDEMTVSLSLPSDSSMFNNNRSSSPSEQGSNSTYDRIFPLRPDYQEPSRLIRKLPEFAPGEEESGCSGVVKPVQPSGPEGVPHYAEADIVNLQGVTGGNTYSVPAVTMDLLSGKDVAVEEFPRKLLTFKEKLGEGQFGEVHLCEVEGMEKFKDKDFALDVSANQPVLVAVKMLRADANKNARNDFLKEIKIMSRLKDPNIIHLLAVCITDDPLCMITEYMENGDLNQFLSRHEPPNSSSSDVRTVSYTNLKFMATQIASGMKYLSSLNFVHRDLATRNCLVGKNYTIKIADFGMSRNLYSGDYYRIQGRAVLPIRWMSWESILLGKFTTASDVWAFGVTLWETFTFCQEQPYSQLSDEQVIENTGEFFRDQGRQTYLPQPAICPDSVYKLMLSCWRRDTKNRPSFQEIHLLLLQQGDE
The experiment in a line: DDR2 binding assay (LanthaScreen Europium Kinase Binding assay). Set-up: purchased Life Technologies. Conditions: binding assay, 5 nM DDR2, 10 nM Kinase Tracer 178; Ki from IC50 by Cheng-Prusoff; read-out: Ki DDR2. As for the experimental part: as §1, §2

The target in assay [2] is T1, DDR1. The experiment in a line: DDR1 cell based assay (PathHunter U2OS DDR1 assay). Set-up: host or cells: U2OS-DDR1 (PathHunter). Conditions: U2OS-DDR1 cells, bovine Type II Collagen 20 μg/ml. As for the experimental part:
The inhibition of DDR1 receptor activation by compounds was evaluated by PathHunter® U2OS DDR1 assay (Eurofins DiscoverX), according to the manufacturer's instructions. Briefly, U2OS-DDR1 cells were seeded in white 384-well plates at a density of 5000 cells/well and incubated for 2 hours at 37° C. and 5% CO2. Cells were then treated with compounds at different concentrations and incubated for 30 minutes, before stimulation with bovine Type II Collagen 20 μg/ml and incubation overnight at 37° C. and 5% CO2. PathHunter Detection Reagents were prepared according to the protocol provided by DiscoverX and 20 μl/well of this mix were added to each well. After incubating the plates for 1 hour at room temperature in the dark, luminescence signal was acquired with a plate reader. Raw data were normalized to vehicle control (0% for normalization) and positive control (100% for normalization; cells treated with 20 μg/ml collagen II) and IC50 parameters were calculated in GraphPad Prism 8.0 software, using sigmoidal dose-response curve fitting with variable slope.

T1 sequence (Q08345 19-913): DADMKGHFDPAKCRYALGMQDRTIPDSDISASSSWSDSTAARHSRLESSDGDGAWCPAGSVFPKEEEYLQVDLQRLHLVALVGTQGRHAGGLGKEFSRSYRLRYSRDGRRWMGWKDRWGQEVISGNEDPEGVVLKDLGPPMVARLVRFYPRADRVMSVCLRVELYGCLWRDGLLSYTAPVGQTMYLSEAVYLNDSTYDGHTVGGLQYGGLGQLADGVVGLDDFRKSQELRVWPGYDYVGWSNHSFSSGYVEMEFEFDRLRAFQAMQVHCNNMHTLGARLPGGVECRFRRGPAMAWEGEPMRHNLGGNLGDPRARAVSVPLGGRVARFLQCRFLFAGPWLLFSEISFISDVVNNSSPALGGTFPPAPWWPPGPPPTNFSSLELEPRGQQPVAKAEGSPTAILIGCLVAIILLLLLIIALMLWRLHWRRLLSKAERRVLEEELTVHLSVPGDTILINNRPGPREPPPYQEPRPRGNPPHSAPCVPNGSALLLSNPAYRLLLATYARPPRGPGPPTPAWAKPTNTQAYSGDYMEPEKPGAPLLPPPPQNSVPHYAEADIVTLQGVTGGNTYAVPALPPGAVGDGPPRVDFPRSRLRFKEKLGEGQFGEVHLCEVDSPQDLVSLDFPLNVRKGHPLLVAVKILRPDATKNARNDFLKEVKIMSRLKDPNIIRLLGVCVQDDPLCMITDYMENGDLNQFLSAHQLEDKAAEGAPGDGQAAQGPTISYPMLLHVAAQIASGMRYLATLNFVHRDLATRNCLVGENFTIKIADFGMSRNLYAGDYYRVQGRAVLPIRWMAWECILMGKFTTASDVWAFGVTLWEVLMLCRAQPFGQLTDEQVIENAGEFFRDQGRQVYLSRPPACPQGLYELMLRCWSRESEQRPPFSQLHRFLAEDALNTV

A word on the Ki: it is a measure of affinity in units of concentration, obtained from inhibition or displacement. Usually IC50 stands for the concentration needed to halve the response being measured. A higher IC50 goes with lower potency. For the molecule `CN1CCC(Oc2ccc(NC(=O)c3csc4c3CCN(C(=O)c3cnc5ccccn35)C4)cc2C(F)(F)F)CC1` [Example 32, 6-(imidazo[1,2-a]pyridine-3-carbonyl)-N-(4-((1-methylpiperidin-4-yl)oxy)-3-(trifluoromethyl)phenyl)-4,5,6,7-tetrahydrothieno[2,3-c]pyridine-3-carboxamide], the Ki on DDR1 [1] and at DDR2 was < 25 nM throughout. The IC50 against DDR1 [2] fell in the range of 25 to 50 nM.

For `CC(C)(C)c1cc(NC(=O)c2csc3c2CCN(C(=O)c2cnc4ccccn24)C3)no1` [Example 33, N-(5-(tert-butyl)isoxazol-3-yl)-6-(imidazo[1,2-a]pyridine-3-carbonyl)-4,5,6,7-tetrahydrothieno[2,3-c]pyridine-3-carboxamide], the Ki at DDR1 [1] and on DDR2 was < 25 nM in each case. The molecule also had an IC50 at DDR1 [2] of 25 to 50 nM.

As for `CC(C)(C)c1cc(NC(=O)c2csc3c2CCN(C(=O)c2cnc4ccccn24)C3)on1` [Example 34, N-(3-(tert-butyl)isoxazol-5-yl)-6-(imidazo[1,2-a]pyridine-3-carbonyl)-4,5,6,7-tetrahydrothieno[2,3-c]pyridine-3-carboxamide], the Ki at DDR1 [1] and at DDR2 was < 25 nM in each case. Besides, on DDR1 [2], the IC50 is < 25 nM.

Consider `Cn1nc(C2CCC2)cc1NC(=O)c1csc2c1CCN(C(=O)c1cnc3ccccn13)C2` [Example 35, N-(3-cyclobutyl-1-methyl-1H-pyrazol-5-yl)-6-(imidazo[1,2-a]pyridine-3-carbonyl)-4,5,6,7-tetrahydrothieno[2,3-c]pyridine-3-carboxamide], for which the inhibition constant (Ki) on DDR1 [1] and at DDR2 was < 25 nM each time. Moreover, the IC50 against DDR1 [2] was in the range of 25 to 50 nM.

For the molecule `CC(C)c1cc(NC(=O)c2csc3c2CCN(C(=O)c2cnc4ccccn24)C3)n(C)n1` [Example 36, 6-(imidazo[1,2-a]pyridine-3-carbonyl)-N-(3-isopropyl-1-methyl-1H-pyrazol-5-yl)-4,5,6,7-tetrahydrothieno[2,3-c]pyridine-3-carboxamide], the inhibitory constant (Ki) on DDR1 [1] and at DDR2 was < 25 nM throughout. The molecule also yielded an IC50 on DDR1 [2] of 50 to 80 nM.

For the molecule `CC(C)(C)c1cc(NC(=O)c2csc3c2CCN(C(=O)c2cnc4ccccn24)C3)ccn1` [Example 37, N-(2-(tert-butyl)pyridin-4-yl)-6-(imidazo[1,2-a]pyridine-3-carbonyl)-4,5,6,7-tetrahydrothieno[2,3-c]pyridine-3-carboxamide], the Ki on DDR1 [1] and on DDR2 was < 25 nM each time. Moreover, the IC50 against DDR1 [2] lay in the range of 25 to 50 nM.

For the molecule `CC(C)n1nc(C(C)(C)C)cc1NC(=O)c1csc2c1CCN(C(=O)c1cnc3ccccn13)C2` [Example 38, N-(3-(tert-butyl)-1-isopropyl-1H-pyrazol-5-yl)-6-(imidazo[1,2-a]pyridine-3-carbonyl)-4,5,6,7-tetrahydrothieno[2,3-c]pyridine-3-carboxamide], the Ki at DDR1 [1] and at DDR2 was < 25 nM throughout. In addition, the IC50 on DDR1 [2] was in the range of 25 to 50 nM.

Turning to `CCCc1cc(NC(=O)c2csc3c2CCN(C(=O)c2cnc4ccccn24)C3)n(C)n1` [Example 39, 6-(imidazo[1,2-a]pyridine-3-carbonyl)-N-(1-methyl-3-propyl-1H-pyrazol-5-yl)-4,5,6,7-tetrahydrothieno[2,3-c]pyridine-3-carboxamide], the Ki on DDR1 [1] and at DDR2 was < 25 nM each time. Further, the IC50 at DDR1 [2] lay in the range of 25 to 50 nM.

With `CC(C)(C)c1cc(NC(=O)c2csc3c2CCN(C(=O)c2cnc4ccccn24)C3)n(CC(F)(F)F)n1` [Example 40, N-(3-(tert-butyl)-1-(2,2,2-trifluoroethyl)-1H-pyrazol-5-yl)-6-(imidazo[1,2-a]pyridine-3-carbonyl)-4,5,6,7-tetrahydrothieno[2,3-c]pyridine-3-carboxamide], the Ki at DDR1 [1] and at DDR2 was < 25 nM in each case. The molecule also returned an IC50 at DDR1 [2] of 25 to 50 nM.

With `CC(C)(C)c1cc(NC(=O)c2csc3c2CCN(C(=O)c2cnc4ccccn24)C3)n(Cc2ccccc2)n1` [Example 41, N-(1-benzyl-3-(tert-butyl)-1H-pyrazol-5-yl)-6-(imidazo[1,2-a]pyridine-3-carbonyl)-4,5,6,7-tetrahydrothieno[2,3-c]pyridine-3-carboxamide], the Ki at DDR1 [1] and at DDR2 was < 25 nM each time. The same molecule displayed an IC50 on DDR1 [2] of 25 to 50 nM.

Regarding `CCn1nc(C(C)(C)C)cc1NC(=O)c1csc2c1CCN(C(=O)c1cnc3ccccn13)C2` [Example 42, N-(3-(tert-butyl)-1-ethyl-1H-pyrazol-5-yl)-6-(imidazo[1,2-a]pyridine-3-carbonyl)-4,5,6,7-tetrahydrothieno[2,3-c]pyridine-3-carboxamide], the inhibition constant (Ki) at DDR1 [1] and on DDR2 was < 25 nM throughout. In addition, the half-inhibitory concentration (IC50) against DDR1 [2] lay within 50 to 80 nM.

Take `CC(C)Cc1cc(NC(=O)c2csc3c2CCN(C(=O)c2cnc4ccccn24)C3)n(C)n1` [Example 43, 6-(imidazo[1,2-a]pyridine-3-carbonyl)-N-(3-isobutyl-1-methyl-1H-pyrazol-5-yl)-4,5,6,7-tetrahydrothieno[2,3-c]pyridine-3-carboxamide]: the Ki on DDR1 [1] and on DDR2 was < 25 nM in each case. On DDR1 [2], this molecule had an IC50 of 25 to 50 nM.

For `CN(C)[C@H]1CCN(Cc2cc(NC(=O)c3csc4c3CCN(C(=O)c3cnc5ccccn35)C4)cc(C(F)(F)F)c2)C1` [Example 44, (S)-N-(3-((3-(dimethylamino)pyrrolidin-1-yl)methyl)-5-(trifluoromethyl)phenyl)-6-(imidazo[1,2-a]pyridine-3-carbonyl)-4,5,6,7-tetrahydrothieno[2,3-c]pyridine-3-carboxamide], the Ki on DDR1 [1] and on DDR2 was < 25 nM each time. Moreover, the IC50 against DDR1 [2] is 25 to 50 nM.

As to `CN(C)[C@@H]1CCN(Cc2cc(NC(=O)c3csc4c3CCN(C(=O)c3cnc5ccccn35)C4)cc(C(F)(F)F)c2)C1` [Example 45, (R)-N-(3-((3-(dimethylamino)pyrrolidin-1-yl)methyl)-5-(trifluoromethyl)-phenyl)-6-(imidazo[1,2-a]pyridine-3-carbonyl)-4,5,6,7-tetrahydrothieno[2,3-c]pyridine-3-carboxamide], the Ki on DDR1 [1] and on DDR2 was < 25 nM throughout. In addition, at DDR1 [2], the IC50 was in the range of 25 to 50 nM.

In the case of `CC(C)(C)c1coc(NC(=O)c2csc3c2CCN(C(=O)c2cnc4ccccn24)C3)n1` [Example 47, N-(4-(tert-butyl)oxazol-2-yl)-6-(imidazo[1,2-a]pyridine-3-carbonyl)-4,5,6,7-tetrahydrothieno[2,3-c]pyridine-3-carboxamide], the Ki on DDR1 [1] and at DDR2 was < 25 nM in each case. Further, the IC50 at DDR1 [2] fell in the range of 25 to 50 nM.

On to `CN(C)C1CCN(Cc2cc(NC(=O)c3csc4c3CCN(C(=O)c3cnc5ccccn35)C4)cc(C(F)(F)F)c2)CC1` [Example 48, N-(3-((4-(dimethylamino)piperidin-1-yl)methyl)-5-(trifluoromethyl)phenyl)-6-(imidazo[1,2-a]pyridine-3-carbonyl)-4,5,6,7-tetrahydrothieno[2,3-c]pyridine-3-carboxamide], for which the figures for the Ki at DDR1 [1] and on DDR2 were < 25 nM and 25 to 50 nM, respectively. Also, at DDR1 [2], the IC50 was 50 to 80 nM.
